Assay results: US9725469B2, “Amino-oxazine and amino-dihydrothiazine compounds as beta-secretase modulators and methods of use” (Amgen Inc., priority 2012, dated 2017)

Tests used:
[1] = tested on: beta amyloid; conditions: patients in early stages of Alzheimer's Disease; cited from earlier work
[2] = target: BACE 1 (beta secretase enzyme) (Homo sapiens, UniProt P56817); test: In vitro enzymatic BACE FRET assay; assay type: biochemical; conditions: average IC50, pH 4.2
Procedure: In Vitro Enzymatic BACE FRET (Fluorescence Resonance Energy Transfer) Assay
The assay buffer used in this screen is 0.05 M acetate, pH 4.2, 10% DMSO final, 100 uM genapol (which is a nonionic detergent, below its Critical Micelle Concentration). The beta secretase enzyme (0.2 nM) is pre-incubated for one hour with inhibitors, typically in about 1 uL of DMSO according to a serial dilution, are added thereto. This assay is effectively started by the addition of FRET substrate (50 nM) and the combination is incubated for one hour. The FRET assay is terminated with by addition of Tris buffer, which raises the pH to neutrality, and the fluorescence is determined. The FRET substrate is a peptide with commercially available fluorophore and quencher, on opposite sides of the BACE cleavage site. Proteolytic cleavage of the FRET substrate releases quenching of fluorescence (excitation […] and […]).

[3] = tested on: Aβ40 in conditioned medium of cells stably expressing Amyloid Precursor Protein (APP); test: In vitro BACE cell-based assay (HEK cell assay, Aβ40 sandwich ELISA); conditions: Homo sapiens, HEK293; average IC50, Aβ40, 24 h incubation
Procedure: In Vitro BACE Cell-Based Assay
The cell-based assay measures inhibition or reduction of Aβ40 in conditioned medium of test compound treated cells expressing amyloid precursor protein.
Cells stably expressing Amyloid Precursor Protein (APP) were plated at a density of 40K cells/well in 96 well plates (Costar). The cells were cultivated for 24 hours at 37° C. and 5% CO2 in DMEM supplemented with 10% FBS. The test compounds were then added to cells in 10-point dose response concentrations with the starting concentration being either 100 μM or 10 μM. The compounds were diluted from stock solutions in DMSO and the final DMSO concentration of the test compounds on cells was 0.1%. After 24 h of incubation with the test compounds the supernatant conditioned media was collected and the Aβ 40 levels were determined using a sandwich ELISA. The IC50 of the compound was calculated from the percent of control or percent inhibition of Aβ 40 as a function of the concentration of the test compound.
The sandwich ELISA to detect Aβ 40 was performed in 96 well microtiter plates, which were pre-treated with goat anti-rabbit IgG (Pierce). The capture and detecting antibody pair that were used to detect Aβ 40 from cell supernatants were affinity purified pAb40 (Biosource) and biotinylated 6E10 (Signet Labs Inc.), respectively. The optimal concentration for the pAb40 antibody was 3 μg/ml in Superblock/TBS (Pierce) that was supplemented with 0.05% Tween 20 (Sigma). Optimal concentration for the detection antibody 6E10-biotinylated was 0.5 μg/ml in Superblock/TBS (Pierce) that had been supplemented with 2% normal goat serum and 2% normal mouse serum.
Cellular supernatants were incubated with the capture antibody for 3 h at 4° C., followed by 3 wash steps in TBS-tween (0.05%). The detecting antibody incubation was for 2 h at 4° C., again followed by the wash steps as described previously. The final readout of the ELISA is Time-Resolved Fluorescence (counts per minute) using Delfia reagents Streptavidin-Europium and Enhancement solutions (Perkin Elmer) and the Victor 2 multilabel counter (Perkin Elmer).

[4] = target: T1, Cathepsin D (Homo sapiens, UniProt P07339); test: In vitro enzymatic Cat D (Cathepsin D) FRET assay; assay type: biochemical; conditions: average IC50, pH 3.5
T1 construct: made in house; host or cells: CHO cells
Procedure: In Vitro Enzymatic Cat D (Cathepsin D) FRET (Fluorescence Resonance Energy Transfer) Assay
Recombinant CathepsinD was expressed in CHO cells. The assay buffer for CathepsinD is 0.05 M citrate pH 3.5, 10% DMSO final, 5 mM CHAPS. The CathepsinD enzyme (9 nM) is pre-incubated for one hour with inhibitors, typically in about 1 uL of DMSO according to a serial dilution, is added thereto. The assays are effectively started by the addition of different FRET substrates (20 nM for CathepsinD) and the combination is incubated for one hour. The FRET assay is terminated with by addition of Tris buffer, which raises the pH to neutrality, and the fluorescence is determined. The FRET substrate is a peptide with commercially available fluorophore and quencher, on opposite sides of the BACE cleavage site. The CathepsinD substrate peptide sequence is based on sequence #1 of Table 1 from Gulnik et al. FEBS Letters v413 p 379-384 1997. Proteolytic cleavage of the FRET substrate releases quenching of fluorescence (CathepsinD excitation 500 nm and emission 580 nm). […]

[5] = tested on: Abeta 40; test: In vivo inhibition of beta-secretase: Abeta 40 reduction in rat CSF and brain; conditions: after 4 hrs; for % reduction of rat CSF Abeta 40 levels at 10 mpk: Abeta 40, rat CSF; for % reduction of rat brain levels at 10 mpk: Abeta 40, rat brain
Excerpt: In Vivo Inhibition of Beta-Secretase
Several animal models, including mouse, rat, dog, and monkey, may be used to screen for inhibition of beta-secretase activity in vivo following administration of a test compound sample. Animals used in this invention can be wild type, transgenic, or gene knockout animals. For example, the Tg2576 mouse model, prepared and conducted as described in Hsiao et al., 1996, Science 274, 99-102, and other non-transgenic or gene knockout animals are useful to analyze in vivo inhibition of Amyloid beta peptide (Abeta) production in the presence of inhibitory test compounds. Generally, 2 to 18 month old Tg2576 mice, gene knockout mice or non-transgenic animals are administered test compounds formulated in vehicles, such as cyclodextran, phosphate buffers, hydroxypropyl methylcellulose or other suitable vehicles. One to twenty-four hours following the administration of compound, animals are sacrificed, and brains as well as cerebrospinal fluid (CSF) and plasma are removed for analysis of A-beta levels and drug or test compound concentrations (Dovey et al., 2001, Journal of Neurochemistry, 76, 173-181) Beginning at time 0, animals are administered by oral gavage, or other means of delivery such as intravenous injection, an inhibitory test compound of up to 100 mg/kg in a standard, conventional formulation, such as 2% hydroxypropyl methylcellulose, 1% Tween80. A separate group of animals receive 2% hydroxypropyl methylcellulose, 1% Tween80 alone, containing no test compound, and serve as a vehicle-control group. At the end of the test period, animals are sacrificed and brain tissues, plasma or cerebrospinal fluid are collected. Brains are either homogenized in 10 volumes (w/v) of 0.2% diethylamine (DEA) in 50 mM NaCl (Best et al., 2005, Journal of Pharmacology and Experimental Therapeutics, 313, 902-908), or in 10 volumes of 0.5% TritonX-100 in Tris-buffered saline (pH at about 7.6). Homogenates are centrifuged at 355,000 g, 4° C. for 30 minutes. CSF or brain supernatants are then analyzed for the presence of A-beta peptide by specific sandwich ELISA assays based on ECL (Electrochemiluminescence) technology. For example, rat Abeta40 is measured using biotinylated-4G8 (Signet) as a capture antibody and Fab40 (an in-house antibody specific to the C-terminal of Abeta40) as a detection antibody. For example, 4 hours after administration of 30 mg/kg oral dose of the test compound in 2% hydroxypropyl methylcellulose, 1% Tween80 (pH2.2) to 200 g male Sprague Dawley rats, amyloid beta peptide levels are measured for reduction by X % and Y % in cerebrospinal fluid and brain, respectively, when compared to the levels measured in the vehicle-treated rats.
Actual vehicles used: Oral: 2% HPMC, 1% Tween80, pH 2.2
The compounds of the invention may be shown to reduce the formation and/or deposition of amyloid beta peptide in the cerebrospinal fluid (CSF) as well as in the brain of a mouse or rat at either 3 mpk, 10 mpk or 30 mpk (mpk=mg compound per kg weight of the animal) dosing concentrations after 4 hrs.

[6] = tested on: pigment epithelium of the rat's eye; conditions: higher compound dose given for three months; cited from earlier work
[7] = people of the terminated Ph I dosing trial; cited from earlier work

T1 sequence (P07339 65-412, species assumed): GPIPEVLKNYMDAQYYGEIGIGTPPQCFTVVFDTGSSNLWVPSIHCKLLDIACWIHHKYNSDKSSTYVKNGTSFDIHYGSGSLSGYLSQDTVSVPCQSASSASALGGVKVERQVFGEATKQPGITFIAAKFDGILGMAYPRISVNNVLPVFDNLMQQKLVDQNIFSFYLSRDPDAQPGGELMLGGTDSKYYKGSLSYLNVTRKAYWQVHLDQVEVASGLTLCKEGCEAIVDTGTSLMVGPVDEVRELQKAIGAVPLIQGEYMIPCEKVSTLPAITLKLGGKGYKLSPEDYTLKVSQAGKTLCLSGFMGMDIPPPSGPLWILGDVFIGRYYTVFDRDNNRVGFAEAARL
Chain of BACE 1 (beta secretase enzyme) (P56817 46-501): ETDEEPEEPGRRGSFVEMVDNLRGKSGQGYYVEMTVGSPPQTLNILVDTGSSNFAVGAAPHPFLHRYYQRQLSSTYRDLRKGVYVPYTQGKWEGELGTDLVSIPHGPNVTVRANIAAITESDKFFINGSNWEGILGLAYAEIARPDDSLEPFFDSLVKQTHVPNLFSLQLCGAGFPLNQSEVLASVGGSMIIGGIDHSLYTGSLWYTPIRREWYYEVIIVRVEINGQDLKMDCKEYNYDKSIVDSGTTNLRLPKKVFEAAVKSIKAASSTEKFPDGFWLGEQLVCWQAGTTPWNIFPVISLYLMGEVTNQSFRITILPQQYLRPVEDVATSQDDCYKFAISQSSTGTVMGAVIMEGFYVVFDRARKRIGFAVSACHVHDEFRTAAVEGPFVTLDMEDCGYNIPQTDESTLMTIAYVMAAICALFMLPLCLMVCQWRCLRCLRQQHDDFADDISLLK

IC50 [2] [nM]	IC50 [3] [nM]	IC50 [4] [nM]	Molecule	slowing of the rate of cognitive decline and memory loss [1]	% reduction of rat CSF Abeta 40 levels at 10 mpk [5] [%]	% reduction of rat brain levels at 10 mpk [5] [%]	eye toxicity finding in rat [6]	eye assessments in people [7]
			Solanezumab: a monoclonal antibody which targets and binds to the central region of beta amyloid; Phase III clinical molecule	approximately 30%				
4.4	3.3	373000	COc1cnc2c(Nc3ccc4c(c3)[C@@]3(CCSC(N)=N3)c3cc(C5=CCOCC5)nc(F)c3O4)nccc2c1 [Example 32, (5S)-3-(3,6-dihydro-2H-pyran-4-yl)-1-fluoro-N~7~-(3-methoxy-1,7-naphthyridin-8-yl)-5′,6′-dihydrospiro[chromeno[2,3-c]pyridine-5,4′-[1,3]thiazine]-2′,7-diamine]		71	47		
17.9	2	400000	COc1cnc2c(Nc3ccc4c(c3)[C@@]3(CCOC(N)=N3)c3cc(C5CC5)ncc3O4)nccc2c1 [Example 38]		39	25		
			C[C@@]1(c2cc(-c3cncnc3)c(F)cc2F)CCSC(N)=N1 [LY 2811376]				damaged the pigment epithelium of the rat's eye	did not show any abnormalities
